Experimental data published in patent US20070161546A1, “Methods and compositions for treatment of cancer” (priority 2005, published 2007).

What was measured:
[1] = tested on: human monocyte-derived macrophages (MDMs); settings: p38 MAPK inhibitor added to Z-100; cited from earlier work
[2] = tested on: Ehrlich ascites tumor cell; settings: mice, 14 days after inoculation with cancer cells
Source text: The injection is repeated over a period of several days. Fourteen days later after the initial inoculation with cancer cells, each of the treated mice are anesthetized.
The solid tumor growing in the abdominal section is carefully isolated from other organ tissues, cleaned using filter papers and weighed. For the test and the control group, the average weight of the cancerous tissue was tabulated and evaluated by the t-test.

Row | SMILES | effect on Z-100-induced effects (repression of HIV-1 replication) [1] | anticancer effect (average weight of the cancerous tissue), agent alone [2]
1 | C[S+]([O-])c1ccc(-c2nc(-c3ccncc3)c(-c3ccc(F)cc3)[nH]2)cc1 (centres unmarked) [SB 203580] | alleviated | –
2 | O=P1(N(CCCl)CCCl)NCCCO1 (centres unmarked) [cyclophosphamide, Cyclophosphamide] | – | anticancer effects of similar magnitude
